Experiments:
[1] = tested on: rabbit sera prepared against whole M protein; test: ELISA: peptide recognition by anti-M protein rabbit sera; assay type: binding
Method: Overlapping peptides representing each M type were assessed for their immunogenicity using ELISA and dot-immunoblot.
(§1) Levels of anti-M protein antibodies in mouse sera were determined by an enzyme-linked immunosorbent assay (ELISA) using either synthetic peptides or whole M protein as antigen. Microtiter plates (DYNEX Immulon 2 HB) were coated with 10 μg/ml antigen in 10 mM phosphate-buffered saline (PBS) at 4° C. overnight. Plates were rinsed three times with wash buffer (0.05% Tween 20 in 10 mM PBS, pH 7.2) and blocked with 1% BSA in PBS for one hour at 37° C. The appropriate test sera were applied at a starting dilution of 1:1000 and serially diluted two fold down the plate in PBS. Plates were incubated at 37° C. for 30 minutes and subsequently rinsed three times. Goat anti-rabbit or goat anti-mouse Ig-peroxidase conjugate diluted 1:10,000 in PBS was added to all wells and incubated for two hours at 37° C. Plates were rinsed three times with wash buffer and freshly prepared TMB peroxidase (Kirkegaard and Perry Laboratories) was added. Reactions were quenched with 0.18 M H2SO4 after 30 minutes at room temperature and OD450 was measured with a Labsystems Multiskan plate reader using Ascent software. ELISA titers are expressed as the reciprocal of the last dilution which gave a reading OD450>0.10.
The immunoreactivity of several synthetic peptides was determined by ELISA using rabbit sera prepared against whole M protein. The synthetic peptides are representative of relatively small portions of the M protein N-terminus; therefore, it was advantageous to determine if the epitopes contained within particular peptides were immunoreactive with sera prepared against whole M protein. It was shown that the whole anti-M protein rabbit sera of the respective serotypes could bind to each of the synthetic peptides within that serotype. However, some peptides were more highly immunoreactive than others, thus being better suited for use in the animal studies.

[2] = tested on: anti-M protein antibodies in mouse sera; test: ELISA of sera of mice immunized s.c. with peptide in alum (immunogenicity); assay type: in vivo, mice (Swiss Webster)
Method: as §1
Mice (6 week old female Swiss Webster, Harley-Sprague) were immunized subcutaneously (s.c.) with either the peptide in alum or alum alone for control groups. Peptides were rotated in the alum mixture for 2 hours at 4° C. and stored at 4° C. overnight prior to use.

| Sequence | immunoreactivity by ELISA using rabbit sera prepared against whole M protein [1] | ELISA (elicitation of antibodies) [2] | immunoreactivity of peptide with anti-M protein rabbit sera (ELISA) ([1]; rabbit sera against whole M protein of the respective serotype) |
| --- | --- | --- | --- |
| CHPDVVAARESVLNNVRVPGT [Peptide M43-2] | confirmed | – | – |
| CAELYNKIQELEEGKAELFDK [st2967-6] | confirmed | – | – |
| CLEDLGQKFERLKQRSELYLQ [Peptide M12-3] | confirmed | no | – |
| CEEASNNGQLTLQHKNNALTSE [Peptide M94-1] | confirmed | – | – |
| CDSDNINRFVSVKDNEKELHN [Peptide M89-6] | confirmed | – | – |
| CRSVSTNSGSVSTPYNNLLNE [Peptide M92-2] | confirmed | – | – |
| CNGDGNPREVIEDLAANNPAME [Peptide M1-4] | – | no | highest reactivity |
| CRRERDNYLNYLYEKEELEKK [Peptide M59-4] | confirmed | – | – |
| CHEREKNDKLSSENEGLK [Peptide M101-3] | confirmed | – | – |
| CNHQLTVENKKLKTDKEQLTKE [Peptide M18-6] | confirmed | – | – |
| CTEHEKLRDEYYTLIDAKEEE [Peptide M28-5] | confirmed | – | – |
| CEELKVEREKYLSYADDKEKDPQ [Peptide M4-4] | confirmed | – | – |
| CDPQRAKEALDKYELENHDLK [Peptide M5-2] | confirmed | – | – |
| CKQRSELYLQQYYDNKSNRYK [Peptide M12-6] | confirmed | – | – |
| CNSKNPVPVKKEAKLSEAELHDK [Peptide M2-1] | confirmed | – | – |
| CTVTRSTINDPQRAKEALDKYE [Peptide M5-8] | confirmed | – | – |
| CESSNISQESKLINTLTDENEK [Peptide M22-2] | confirmed | – | – |
| CLEEERGEHLDKIDELKEELK [Peptide M89-8] | confirmed | – | – |
| CKENEELKVEREKYLSYADDK [Peptide M4-3] | confirmed | – | – |
| CRATADNKDELIKRANDYEIQ [Peptide M18-2] | confirmed | – | – |
| CTVTRGTINDPQRAKEALDKYE [Peptide M5-1] | confirmed | – | – |
| CEAGVSKFWKSKFDAEQNRANE [Peptide M82-3] | confirmed | – | – |
| CDSSRDSSREVTNELTASMWK [Peptide M58-5] | confirmed | – | – |
| CTVTRGTINDPQRAKEVIDKYE [Peptide M5-7] | confirmed | – | – |
| CQLRDPYAGAFRRNNELEKIIQE [Peptide M41-5] | confirmed | – | – |
| CLDQVTQLYTKHNSNYQQYSA [Peptide M3-5] | confirmed | – | – |
| CIQNIRLRHENKDLKARLENA [Peptide M1-2] | confirmed | no | – |
| CLAQVTQLYTKHNSNYQQYNA [Peptide M3-7] | confirmed | – | – |

— patent publication US8637050B2, “Peptide vaccines against group A streptococci” (The United States of America, as represented by the …, priority 2001, dated 2014)
